≈ marks a conversion by molar mass, not a printed value. Structures can show the parent of a compound that is named as a salt. Where two headings read alike, the source gives them in different places.
Key:
[1] = test system: Staphylococcus aureus subsp. aureus (ATCC 6538); assay: Agar dilution MIC / MBC; assay type: cell-based; conditions: Staphylococcus aureus, ATCC6538, S. aureus; for MIC: agar dilution, 24 h; for MBC: value in parentheses, read-out: MBC
Procedure: (§1) This isolate was identified by conventional biochemical assays and by the commercial system API20E (bioMérieux SA, Mercy L'Etoile, France). Antimicrobial resistances were determined by disk diffusion susceptibility testing (Kirby-Bauer Method) according to CLSI [15]. Bacterial suspensions were prepared on sterile saline from each organism grown overnight. Turbidity was spectrophotometrically adjusted to the McFarland 0.5 standard. Dilutions were carried out with sterile saline to give an adjusted concentration of 1.5 × 10^7 colony-forming units/mL.
(§2) Three independent experiments were carried out. […] For reading, visual observations were carried out.

[2] = test system: tetracycline, erythromycin, and polymyxin-resistant Proteus mirabilis (Pr2921); assay: Agar dilution MIC / MBC; assay type: cell-based; conditions: P. mirabilis; for MIC: agar dilution, 24 h; for MBC: value in parentheses
Procedure: as §1, §2

[3] = test system: Pseudomonas aeruginosa (ATCC 27853); assay: Agar dilution MIC / MBC; assay type: cell-based; conditions: ATCC27853, P. aeruginosa; for MIC: agar dilution, 24 h; for MBC: value in parentheses
Procedure: as §1, §2

[4] = test system: Escherichia coli (ATCC 25922); assay: Agar dilution MIC / MBC; assay type: cell-based; conditions: ATCC25922, E. coli; for MIC: agar dilution, 24 h; for MBC: value in parentheses
Procedure: as §1, §2

[5] = test system: Enterococcus faecalis (ATCC 29212); assay: Agar dilution MIC / MBC; assay type: cell-based; conditions: ATCC29212, E. faecalis; for MIC: agar dilution, 24 h; for MBC: value in parentheses
Procedure: as §1, §2

[6] = test system: Lucena 1 cells (MDR, P-glycoprotein overexpressing); assay: cells; assay type: cell-based, human; conditions: for IC50: Homo sapiens, Lucena 1, 72 h, Lucena 1, MTT, 72 h, read-out: IC50 values and 95% confidence limits (lower, upper)
Procedure: (§3) The HEK293T non-tumor derived cell line and human isolated mononuclear cells (PBMC) were also tested. […] Cells were cultured at 37°C in a 5% CO2 humidified environment.
(§4) The latter concentration was then used for maintenance of the cells. Lucena 1 were continuously cultured in the presence of 60 nM DOX. Both cell lines were grown in drug-free medium 3-4 days before the experiments. Overexpression of P-glycoprotein (P-gp) in both MDR variants was verified by flow cytometry using FITC-labeled mouse anti-human P-gp (BD Pharmingen, USA). Cells were subcultured twice a week from frozen stocks and used before the 20th passage. All experiments were performed with cells in the logarithmic growth phase with cell viabilities over 90%, determined by trypan blue staining.
(§5) To investigate the cytotoxic potential of the isolated compounds, the MTT colorimetric assay was performed. […] The compounds were evaluated at a final maximum concentration of 100 μM. After 72 hours, 20 μL of 5 mg/mL solution of MTT in sterile PBS was added to each well and further incubated for 4 h. Then, the supernatants were removed and replaced with 100 μL DMSO to solubilize the resulting purple formazan crystals produced from metabolically viable cells. Absorbance was measured with an iMark micro-plate reader (Bio-Rad, USA) at 595 nm. Two wells were used for each concentration of the products assayed and three independent experiments were performed. […] The percentage of cytotoxic activity of the assayed compounds was determined by the following formula: cytotoxicity (%) = [1 − (optical density of treated cells − optical density DMSO)/(optical density of ethanol control cells − optical density DMSO)] × 100.
(§6) Data were analyzed by one-way analysis of variance (ANOVA) and means were compared using Bonferroni's comparison test, with p ≤ 0.05 considered as statistically significant.

[7] = test system: CEM/ADR5000 cells (MDR, P-glycoprotein overexpressing); assay: cells; assay type: cell-based, human; conditions: for IC50: Homo sapiens, ADR5000, 72 h, CEM/ADR5000, MTT, 72 h, read-out: IC50 values and 95% confidence limits (lower, upper)
Procedure: as §3, §4, §5, §6

[8] = test system: K562 chronic myeloid leukemia cells; assay: MTT cell proliferation assay; assay type: cell-based, human; conditions: Homo sapiens, K562, MTT, 72 h, read-out: IC50 values and 95% confidence limits (lower, upper)
Procedure: as §3, §5, §6

[9] = test system: CCRF-CEM acute lymphoblastic leukemia cells; assay: MTT cell proliferation assay; assay type: cell-based, human
Procedure: as §3, §5, §6

[10] = test system: bacteria; assay: Antibacterial test of fractions during bioguided isolation; conditions: at 2 mg/mL
Procedure: MICs were determined by the agar dilution test according to CLSI [15] with some modifications [7]. Briefly, the plate count agar medium (PCA, Oxoid Ltd, UK) was added in duplicate to the suitable amount of fraction or pure compound previously dissolved in ethanol. […] After solidification of the agar in 6-well plates (Greiner Bio-One, Germany), 2 μL of each bacterial suspension was placed on the agar surface. Three independent experiments were carried out. […] For reading, visual observations were carried out. Nitro blue tetrazolium (NBT, Sigma-Aldrich CO, USA) solution in saline phosphate buffer (PBS) was applied on one spot for confirmation. Plates containing only the culture medium, with or without the addition of the dissolution solvent, were used as controls. Positive controls with commercial gentamicin sulfate or erythromycin dissolved in sterile water or ethanol, respectively, were simultaneously carried out.
The bactericidal effect was further studied from each concentration of product showing growth inhibition. […] At the end of this period, the minimum bactericidal concentration (MBC) values, defined as the lowest concentration with absence of turbidity, were recorded.

[11] = Homo sapiens; CCRF-CEM; MTT, 72 h; read-out: IC50 values and 95% confidence limits (lower, upper)

O=C(/C=C/c1ccc(O)cc1)c1ccc(O)cc1O [Compound 2, isoliquiritigenin]
MIC [1]: 250 µg/mL (≈ 976 µM)
MBC [1]: 500 µg/mL (≈ 1950 µM)
MIC [2]: > 500 µg/mL
MBC [2]: > 500 µg/mL
MIC [3]: > 500 µg/mL
MBC [3]: > 500 µg/mL
MIC [4]: > 500 µg/mL
MBC [4]: > 500 µg/mL
MIC [5]: 500 µg/mL (≈ 1950 µM)
MBC [5]: > 500 µg/mL
IC50 [6]: > 100 µM
IC50 [7]: 51.9 µM
IC50 [8]: > 100 µM
IC50 [9, 11]: 58.1 µM

COc1cc(C2CC(=O)c3ccc(O)cc3O2)ccc1O (stereo not drawn) [Compound 5, 7,4′-dihydroxy-3′-methoxyflavanone]
MIC [1]: 250 µg/mL (≈ 873 µM)
MBC [1]: > 500 µg/mL
MIC [2]: > 500 µg/mL
MBC [2]: > 500 µg/mL
MIC [3]: > 500 µg/mL
MBC [3]: > 500 µg/mL
MIC [4]: > 500 µg/mL
MBC [4]: > 500 µg/mL
MIC [5]: 500 µg/mL (≈ 1750 µM)
MBC [5]: > 500 µg/mL
IC50 [6]: > 100 µM
IC50 [7]: 30.4 µM
IC50 [8]: > 100 µM
IC50 [9, 11]: 24.8 µM

COc1cccc2c1C(=O)c1c(O)c3c(c(O)c1C2=O)C[C@@](O)(C(=O)CO)C[C@@H]3O[C@H]1C[C@H](N)[C@H](O)[C@H](C)O1 [Doxorubicin, Doxorubicin hydrochloride, reference compound]
resistant index (RI) = IC50 resistant cells/IC50 sensitive cells [6]: ≥ 16.8
IC50 [6]: > 69 µM
resistant index (RI) = IC50 resistant cells/IC50 sensitive cells ([7]; CEM/ADR5000 vs CCRF-CEM): ≥ 518.8
IC50 [7]: > 69 µM
IC50 ([8]; K562, 72 h): 4.1 µM
IC50 ([9]; Homo sapiens, CCRF-CEM, 72 h, CCRF-CEM; MTT, 72 h; read-out: IC50 values and 95% confidence limits (lower, upper)): 0.133 µM

CC[C@H]1OC(=O)[C@H](C)[C@@H](O[C@H]2C[C@@](C)(OC)[C@@H](O)[C@H](C)O2)[C@H](C)[C@@H](O[C@@H]2O[C@H](C)C[C@H](N(C)C)[C@H]2O)[C@](C)(O)C[C@@H](C)C(=O)[C@H](C)[C@@H](O)[C@]1(C)O [Erythromycin, erythromycin, reference compound]
MIC [1]: 1 µg/mL (≈ 1.36 µM)
MBC [1]: 60 µg/mL (≈ 81.8 µM)
MIC [2]: 500 µg/mL (≈ 681 µM)
MBC [2]: > 500 µg/mL
MIC [3]: 62 µg/mL (≈ 84.5 µM)
MBC [3]: 500 µg/mL (≈ 681 µM)
MIC [4]: 125 µg/mL (≈ 170 µM)
MBC [4]: > 500 µg/mL
MIC [5]: 1 µg/mL (≈ 1.36 µM)
MBC [5]: 30 µg/mL (≈ 40.9 µM)

CNC(C)C1CCC(N)C(OC2C(N)CC(N)C(OC3OCC(C)(O)C(NC)C3O)C2O)O1 (stereo not drawn) [Gentamicin, Gentamicin sulfate, reference compound]
MIC [1]: 8 µg/mL
MBC [1]: 10 µg/mL
MIC [2]: 10 µg/mL
MBC [2]: 10 µg/mL
MIC [3]: 4 µg/mL
MBC [3]: 4 µg/mL
MIC [4]: 4 µg/mL
MBC [4]: 8 µg/mL
MIC [5]: 8 µg/mL
MBC [5]: 10 µg/mL

O=C1C[C@@H](c2ccccc2)Oc2cc(O)cc(O)c21 [Compound 3, pinocembrin]
MIC [1]: 15 µg/mL (≈ 58.5 µM)
MBC [1]: 62 µg/mL (≈ 242 µM)
MIC [2]: > 500 µg/mL
MBC [2]: > 500 µg/mL
MIC [3]: > 500 µg/mL
MBC [3]: > 500 µg/mL
MIC [4]: 500 µg/mL (≈ 1950 µM)
MBC [4]: 500 µg/mL (≈ 1950 µM)
MIC [5]: 62 µg/mL (≈ 242 µM)
MBC [5]: 125 µg/mL (≈ 488 µM)
IC50 [6]: > 100 µM
IC50 [7]: 53.5 µM
bactericidal activity [10]: bactericidal effects
IC50 [8]: > 100 µM
IC50 [9, 11]: 58.9 µM

Source: paper PMC4706877, “Antibacterial and Cytotoxic Activity of Compounds Isolated from Flourensia oolepis” (Evidence-based Complementary and Alternative Medicine : eCAM, 2015)
